{"source": "patent US20100272717A1", "about": "“COMBINATIONS OF THERAPEUTIC AGENTS FOR TREATING CANCER” (NOVARTIS AG, priority 2007, published 2010)", "format_in_all_cases": "in vivo", "key": {"[1]": {"test_system": "MDA-MB-231 human breast adenocarcinoma xenograft", "test": "MDA-MB-231 human breast adenocarcinoma xenograft model, anti-tumor activity and tolerability", "conditions": "FIG. 1", "experimental": "The effect of 5,6-dimethylxanthenone-4-acetic acid (Compound A) and 2-methyl-2-[4-(3-methyl-2-oxo-8-quinolin-3-yl-2,3-dihydro-imidazo[4,5-c]quinolin-1-yl)-phenyl]-propionitrile (Compound B) are evaluated for their anti-tumor activity using the MDA-MB-231 human breast adenocarcinoma xenograft model.\n(§1) Interactions of combinations can be approximated using a combination index presented by Clark (Breast Cancer Research and Treatment 46, 255-278 (1997)). Taking A to be the activity (T/C) of compound A given alone; B to be the activity of compound B given alone; C the activity in the vehicle controls and AB to be the activity in the combination. A+B, the following formulae can be applied: synergy−(AB)/C<(A/C)×B/C), additive−(AB)/C=(A/C)×(B/C) and antagonistic−(AB)/C>(A/C)×(B/C). […] For example if, the triple combination of A+B+C is to be compared to the activity of the three agents given alone then taking D to be the activity of the vehicle controls the formula defining synergy would be (ABC)/D<(A/D)×(B/D)×(C/D)."}, "[2]": {"test_system": "BT-474 human breast ductal carcinoma xenograft", "test": "BT-474 human breast ductal carcinoma xenograft model, anti-tumor activity and tolerability", "conditions": "FIG. 7; Compound A 20 mg/kg intravenously on days 1, 5 and 9", "source_text": "as §1"}, "[3]": {"test_system": "MCF-7 human breast adenocarcinoma xenograft", "test": "MCF-7 human breast adenocarcinoma xenograft model, anti-tumor activity and tolerability", "conditions": "for anti-tumor activity: FIG. 6 experiment, dose not stated", "source_text": "A+B, the following formulae can be applied: synergy−(AB)/C<(A/C)×B/C), additive−(AB)/C=(A/C)×(B/C) and antagonistic−(AB)/C>(A/C)×(B/C). […] For example if, the triple combination of A+B+C is to be compared to the activity of the three agents given alone then taking D to be the activity of the vehicle controls the formula defining synergy would be (ABC)/D<(A/D)×(B/D)×(C/D)."}, "[4]": {"test_system": "A549 human non-small cell lung carcinoma xenograft", "test": "A549 human non-small cell lung carcinoma xenograft model, anti-tumor activity and tolerability", "source_text": "as §1\nThe effects of Compound A and Compound B are evaluated for their anti-tumor activity using the A549 human non-small cell lung carcinoma xenograft model.\nThe effects of 5,6-dimethylxanthenone-4-acetic acid (Compound A) and 4-amino-5-fluoro-3-[5-(4-methylpiperazin-1-yl)-1H-benzimidazol-2-yl]quinolin-2(1H)-one (Compound C) are evaluated for their anti-tumor activity using the A549 human non-small cell lung carcinoma xenograft model.\nThe effects of 5,6-dimethylxanthenone-4-acetic acid (Compound A) and everolimus are evaluated for their anti-tumor activity using the A549 human non-small cell lung carcinoma xenograft model.\nThe effect of 5,6-dimethylxanthenone-4-acetic acid (Compound A) and patupilone are evaluated for their anti-tumor activity using the A549 human non-small cell lung carcinoma xenograft model."}}, "data": [{"molecule": "Cc1ccc2c(=O)c3cccc(CC(=O)O)c3oc2c1C", "note": "[Compound A, 5,6-dimethylxanthenone-4-acetic acid]", "values": [{"measurement": "anti-tumor activity (tumor growth)", "setting": "[1]; Compound A 18.6 mg/kg intravenously on days 1, 5 and 9", "result": "inhibition of tumor growth"}, {"measurement": "anti-tumor activity (tumor growth)", "setting": "[2]", "result": "inhibition of tumor growth"}, {"measurement": "anti-tumor activity (tumor growth)", "setting": "[3]; FIG. 6, Compound A 20 mg/kg intravenously on days 1, 5 and 9", "result": "inhibition of tumor growth"}, {"measurement": "anti-tumor activity (tumor growth)", "setting": "[4]; in vivo, ip, 15 mg/kg", "result": "inhibition of tumor growth"}]}, {"molecule": "C/C(=C\\c1csc(C)n1)[C@@H]1C[C@@H]2O[C@]2(C)CCC[C@H](C)[C@H](O)[C@@H](C)C(=O)C(C)(C)[C@@H](O)CC(=O)O1", "note": "[patupilone, (1S,3S,7S,10R,11S,12S,16R,1′E)-7,11-dihydroxy-8,8,10,12,16-pentamethyl-3-[methyl-2-(2-methylthiazol-4-yl)-vinyl]-4,17-dioxabicyclo[14.1.0]heptadecane-5,9-dione, reference compound]", "values": [{"measurement": "anti-tumor activity (tumor growth)", "setting": "[4]; FIG. 5, patupilone 2 mg/kg intravenously", "result": "inhibition of tumor growth"}]}, {"molecule": "bevacizumab: monoclonal antibody, marketed as AVASTIN", "values": [{"measurement": "anti-tumor activity", "setting": "[3]", "result": "no anti-tumor activity"}]}, {"molecule": "CC(=O)O[C@@]12CO[C@@H]1C[C@H](O)[C@@]1(C)C(=O)[C@H](O)C3=C(C)[C@@H](OC(=O)[C@H](O)[C@@H](NC(=O)OC(C)(C)C)c4ccccc4)C[C@@](O)([C@@H](OC(=O)c4ccccc4)[C@H]21)C3(C)C", "note": "[docetaxel, reference compound]", "values": [{"measurement": "anti-tumor activity", "setting": "[3]", "result": "inhibition of tumor growth"}]}, {"molecule": "CN1CCN(c2ccc3[nH]c(-c4c(N)c5c(F)cccc5[nH]c4=O)nc3c2)CC1", "note": "[Compound C, 4-amino-5-fluoro-3-[5-(4-methylpiperazin-1-yl)-1H-benzimidazol-2-yl]quinolin-2(1H)-one]", "values": [{"measurement": "anti-tumor activity", "setting": "[4]; in vivo", "result": "dose-dependent activity"}]}, {"molecule": "Cn1c(=O)n(-c2ccc(C(C)(C)C#N)cc2)c2c3cc(-c4cnc5ccccc5c4)ccc3ncc21", "note": "[Compound B, 2-methyl-2-[4-(3-methyl-2-oxo-8-quinolin-3-yl-2,3-dihydro-imidazo[4,5-c]quinolin-1-yl)-phenyl]-propionitrile]", "values": [{"measurement": "anti-tumor activity (tumor growth)", "setting": "[1]; Compound B alone, several dose levels", "result": "dose-dependent inhibition of tumor growth"}, {"measurement": "anti-tumor activity", "setting": "[4]; FIG. 2, Compound B alone, 20 mg/kg", "result": "shows activity"}]}]}
